Data as given in patent US7304174B2, “CaSR antagonist” (Japan Tobacco Inc., priority 2003, dated 2007).

Target: T1, human calcium receptor (Homo sapiens, UniProt P41180)
T1 construct: expressed in transfected cells; host or cells: cell strain derived from rat adrenal, co-transformed with luciferase cDNA
T1 sequence (P41180 20-1078): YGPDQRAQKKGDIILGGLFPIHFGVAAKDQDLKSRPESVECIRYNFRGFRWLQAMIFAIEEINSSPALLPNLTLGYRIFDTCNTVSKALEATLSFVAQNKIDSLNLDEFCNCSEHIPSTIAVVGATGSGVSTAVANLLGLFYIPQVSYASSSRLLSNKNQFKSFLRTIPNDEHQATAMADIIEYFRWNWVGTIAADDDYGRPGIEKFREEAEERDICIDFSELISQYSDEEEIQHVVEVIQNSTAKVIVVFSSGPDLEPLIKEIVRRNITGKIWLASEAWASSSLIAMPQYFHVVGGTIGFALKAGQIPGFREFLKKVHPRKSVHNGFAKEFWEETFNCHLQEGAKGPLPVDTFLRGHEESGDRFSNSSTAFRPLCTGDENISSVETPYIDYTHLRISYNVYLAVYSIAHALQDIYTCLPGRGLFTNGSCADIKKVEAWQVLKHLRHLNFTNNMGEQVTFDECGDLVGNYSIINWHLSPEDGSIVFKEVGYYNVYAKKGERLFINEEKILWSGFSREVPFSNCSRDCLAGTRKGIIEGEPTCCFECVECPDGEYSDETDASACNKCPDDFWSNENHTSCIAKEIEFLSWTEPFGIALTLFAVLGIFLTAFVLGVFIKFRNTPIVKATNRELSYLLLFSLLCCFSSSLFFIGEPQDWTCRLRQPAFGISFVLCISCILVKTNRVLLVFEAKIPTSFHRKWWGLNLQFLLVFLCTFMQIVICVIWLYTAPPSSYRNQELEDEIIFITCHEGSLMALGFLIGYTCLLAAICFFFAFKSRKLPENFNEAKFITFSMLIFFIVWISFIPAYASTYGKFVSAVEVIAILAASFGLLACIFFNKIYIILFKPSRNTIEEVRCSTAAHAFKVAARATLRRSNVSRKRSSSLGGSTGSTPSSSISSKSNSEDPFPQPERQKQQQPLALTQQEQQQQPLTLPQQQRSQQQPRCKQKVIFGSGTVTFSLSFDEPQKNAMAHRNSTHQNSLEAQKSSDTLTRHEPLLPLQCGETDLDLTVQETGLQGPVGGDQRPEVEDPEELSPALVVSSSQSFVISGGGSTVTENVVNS
Experiment: Evaluation of antagonistic action on calcium receptor using reporter gene (luciferase)
Type: cell-based
Details: transformed rat adrenal derived cells, 5 mM calcium chloride, culture 4 hrs, luciferase activity; read-out: Reporter gene assay (IC50, concentration showing 50% inhibitory rate)
Method: Evaluation of Antagonistic Action on Calcium Receptor Using Reporter Gene
Luciferase cDNA and human calcium receptor cDNA were introduced into a cell strain derived from rat adrenal to transform the cells, and the transformed cells were cultured in a medium (80 μl, F12 medium containing 0.5% dialyzed horse serum and 0.25% dialyzed bovine fetal serum). A dimethyl sulfoxide solution containing a test compound at 0.1-10000 μM was diluted 100-fold with the medium and added to the test compound group at 10 μl per well (dimethyl sulfoxide final concentration 0.1%). In the same manner as in test compound group, dimethyl sulfoxide 100-fold diluted with medium was added to a control group and a blank group. Then, 50 mM calcium chloride-containing medium was added to every well except the blank group at 10 μl per well (final concentration 5 mM). A medium containing 50 mM calcium chloride was added to the control group at 10 μl per well, such that the final calcium concentration of the medium became 5 mM. A medium alone was added to the blank group. After culture for 4 hrs, luciferase substrate was added and the luciferase activity was measured with a photoluminometer. The inhibitory rate (%) was calculated from the obtained measured values according to the following formula.
Based on the results, the concentration (IC50) showing 50% inhibitory rate was determined. The results are shown in the aforementioned Tables 1 to 60.

## Cc1cc(-c2ccccc2[C@@H](C)OC[C@H](O)CNC(C)(C)Cc2ccc3ccccc3c2)ccc1C(=O)O [Example 1-55, 3-methyl-2′-[1-[(2R)-3-[[1-(naphthalen-2-yl)-2-methylpropan-2-yl]amino]-2-hydroxypropoxy]ethyl]biphenyl-4-carboxylic acid]
  IC50: 10 nM

## C[C@@H](OC[C@H](O)CNC(C)(C)Cc1ccc2ccccc2c1)c1ccccc1-c1ccc(F)c(C(=O)O)c1 [Example 1-56, 4-fluoro-2′-[1-[(2R)-3-[[1-(naphthalen-2-yl)-2-methylpropan-2-yl]amino]-2-hydroxypropoxy]ethyl]biphenyl-3-carboxylic acid]
  IC50: 19 nM

## C[C@@H](OC[C@H](O)CNC(C)(C)Cc1ccc2ccccc2c1)c1ccccc1-c1cc(C(=O)O)ccc1F [Example 1-58, 6-fluoro-2′-[1-[(2R)-3-[[1-(naphthalen-2-yl)-2-methylpropan-2-yl]amino]-2-hydroxypropoxy]ethyl]biphenyl-3-carboxylic acid]
  IC50: 21 nM

## Cc1cc(-c2ccccc2[C@@H](C)OC[C@H](O)CNC(C)(C)Cc2cccc(Cl)c2)ccc1C(=O)O [Example 1-60, 2′-[1-[(2R)-3-[[1-(3-chlorophenyl)-2-methylpropan-2-yl]amino]-2-hydroxypropoxy]ethyl]-3-methylbiphenyl-4-carboxylic acid]
  IC50: 96 nM

## Cc1cc(-c2ccccc2[C@@H](C)OC[C@H](O)CNC(C)(C)Cc2ccc(Cl)c(Cl)c2)ccc1C(=O)O [Example 1-61, 2′-[1-[(2R)-3-[[1-(3,4-dichlorophenyl)-2-methylpropan-2-yl]amino]-2-hydroxypropoxy]ethyl]-3-methylbiphenyl-4-carboxylic acid]
  IC50: 4 nM

## C[C@@H](OC[C@H](O)CNC(C)(C)Cc1ccc2ccccc2c1)c1ccccc1-c1ccc(C(=O)O)cc1F [Example 1-62, 2-fluoro-2′-[1-[(2R)-3-[[1-(naphthalen-2-yl)-2-methylpropan-2-yl]amino]-2-hydroxypropoxy]ethyl]biphenyl-4-carboxylic acid]
  IC50: 8 nM

## Cc1cc(-c2ccccc2C(OC[C@H](O)CNC(C)(C)Cc2ccc3ccccc3c2)C2CC2)ccc1C(=O)O (stereo partly drawn) [Example 1-63, 2′-[(cyclopropyl)[(2R)-3-[[1-(naphthalen-2-yl)-2-methylpropan-2-yl]amino]-2-hydroxypropoxy]methyl]-3-methylbiphenyl-4-carboxylic acid]
  IC50: 16 nM

## CC(C)(Cc1ccc2ccccc2c1)NC[C@@H](O)COC(c1ccccc1-c1ccc(C(=O)O)c(F)c1)C1CC1 (stereo partly drawn) [Example 1-64, 2′-[(cyclopropyl)[(2R)-3-[[1-(naphthalen-2-yl)-2-methylpropan-2-yl]amino]-2-hydroxypropoxy]methyl]-3-fluorobiphenyl-4-carboxylic acid]
  IC50: 17 nM

## CC(C)(Cc1ccc2ccccc2c1)NC[C@@H](O)COC(c1ccccc1-c1ccc(C(=O)O)cc1F)C1CC1 (stereo partly drawn) [Example 1-65, 2′-[(cyclopropyl)[(2R)-3-[[1-(naphthalen-2-yl)-2-methylpropan-2-yl]amino]-2-hydroxypropoxy]methyl]-2-fluorobiphenyl-4-carboxylic acid]
  IC50: 16 nM

## Cc1cc(C(=O)O)ccc1-c1ccccc1C(OC[C@H](O)CNC(C)(C)Cc1ccc2ccccc2c1)C1CC1 (stereo partly drawn) [Example 1-66, 2′-[(cyclopropyl)[(2R)-3-[[1-(naphthalen-2-yl)-2-methylpropan-2-yl]amino]-2-hydroxypropoxy]methyl]-2-methylbiphenyl-4-carboxylic acid]
  IC50: 17 nM

## C[C@@H](OC[C@H](O)CNC(C)(C)Cc1ccc(Cl)c(Cl)c1)c1ccccc1-c1ccc(C(=O)O)cc1F [Example 1-67, 2′-[1-[(2R)-3-[[1-(3,4-dichlorophenyl)-2-methylpropan-2-yl]amino]-2-hydroxypropoxy]ethyl]-2-fluorobiphenyl-4-carboxylic acid]
  IC50: 19 nM

## C[C@@H](OC[C@H](O)CNC(C)(C)Cc1ccc2ccccc2c1)c1ccccc1-c1ccc(C(=O)O)c(Cl)c1 [Example 1-68, 3-chloro-2′-[1-[(2R)-3-[[1-(naphthalen-2-yl)-2-methylpropan-2-yl]amino]-2-hydroxypropoxy]ethyl]biphenyl-4-carboxylic acid]
  IC50: 3 nM

## C[C@@H](OC[C@H](O)CNC(C)(C)Cc1ccc2ccccc2c1)c1ccccc1-c1ccc(C(=O)O)c([N+](=O)[O-])c1 [Example 1-69, 2′-[1-[(2R)-3-[[1-(naphthalen-2-yl)-2-methylpropan-2-yl]amino]-2-hydroxypropoxy]ethyl]-3-nitrobiphenyl-4-carboxylic acid]
  IC50: 2 nM

## C[C@@H](OC[C@H](O)CNC(C)(C)Cc1ccc2ccccc2c1)c1ccccc1-c1ccc(C(=O)O)c(N)c1 [Example 1-70, 3-amino-2′-[1-[(2R)-3-[[1-(naphthalen-2-yl)-2-methylpropan-2-yl]amino]-2-hydroxypropoxy]ethyl]biphenyl-4-carboxylic acid]
  IC50: 5 nM

## CC(=O)Nc1cc(-c2ccccc2[C@@H](C)OC[C@H](O)CNC(C)(C)Cc2ccc3ccccc3c2)ccc1C(=O)O [Example 1-71, 3-(acetylamino)-2′-[1-[(2R)-3-[[1-(naphthalen-2-yl)-2-methylpropan-2-yl]amino]-2-hydroxypropoxy]ethyl]biphenyl-4-carboxylic acid]
  IC50: 5 nM

## Cc1ccc(CC(C)(C)NC[C@@H](O)CO[C@H](C)c2ccccc2-c2ccc(C(=O)O)c(Cl)c2)cc1F [Example 1-72, 3-chloro-2′-[1-[(2R)-3-[[1-(3-fluoro-4-methylphenyl)-2-methylpropan-2-yl]amino]-2-hydroxypropoxy]ethyl]biphenyl-4-carboxylic acid]
  IC50: 15 nM

## C[C@@H](OC[C@H](O)CNC(C)(C)Cc1ccc2ccccc2c1)c1ccccc1-c1cc2c(c(C(=O)O)c1)OCC2 [Example 1-74, 2,3-dihydro-5-[2-[1-[(2R)-3-[[1-(naphthalen-2-yl)-2-methylpropan-2-yl]amino]-2-hydroxypropoxy]ethyl]phenyl]benzofuran-7-carboxylic acid]
  IC50: 11 nM

## Cc1cc(C(=O)O)cc(C)c1-c1ccccc1[C@@H](C)OC[C@H](O)CNC(C)(C)Cc1ccc2ccccc2c1 [Example 1-75, 2,6-dimethyl-2′-[1-[(2R)-3-[[1-(naphthalen-2-yl)-2-methylpropan-2-yl]amino]-2-hydroxypropoxy]ethyl]biphenyl-4-carboxylic acid]
  IC50: 12 nM

## Cc1ccc(CC(C)(C)NC[C@@H](O)CO[C@H](C)c2ccccc2-c2c(C)cc(C(=O)O)cc2C)cc1F [Example 1-76]
  IC50: 22 nM

## C[C@@H](OC[C@H](O)CNC(C)(C)Cc1ccc2ccccc2c1)c1ccccc1-c1ccc(C(=O)O)c(N(C)C)c1 [Example 1-77, 3-(dimethylamino)-2′-[1-[(2R)-3-[[1-(naphthalen-2-yl)-2-methylpropan-2-yl]amino]-2-hydroxypropoxy]ethyl]biphenyl-4-carboxylic acid]
  IC50: 21 nM

## Cc1ccc(CC(C)(C)NC[C@@H](O)CO[C@H](C)c2ccccc2-c2cc3c(c(C(=O)O)c2)OCC3)cc1F [Example 1-78, 2,3-dihydro-5-[2-[1-[(2R)-3-[[1-(3-fluoro-4-methylphenyl)-2-methylpropan-2-yl]amino]-2-hydroxypropoxy]ethyl]phenyl]benzofuran-7-carboxylic acid]
  IC50: 20 nM

## Cc1ccc(CC(C)(C)NC[C@@H](O)CO[C@H](C)c2ccccc2-c2ccc(C(=O)O)c(Cc3ccccc3)c2)cc1F [Example 1-79, 3-benzyl-2′-[1-[(2R)-3-[[1-(3-fluoro-4-methylphenyl)-2-methylpropan-2-yl]amino]-2-hydroxypropoxy]ethyl]biphenyl-4-carboxylic acid]
  IC50: 4 nM
